Test results published in patent US20250034167A1, “HETEROCYCLIC COMPOUNDS AND METHODS OF USE” (AMGEN INC., priority 2021, published 2025).
pIC50: −log10 of the molar value.

Assays:
[1] = tested on: Phosphorylation of ERK1/2 in AsPC-1 cells; experiment: Phospho-ERK1/2 MSD Assay; type: cell-based; conditions: Homo sapiens, ASPC1, 2 h, read-out: 2 h p-ERK (AsPC-1 cells), IC50, AsPC-1 cells, 2 h compound treatment
Procedure: Sixteen hours prior to compound treatment, AsPC-1 cells were seeded in 96-well cell culture plates at a density of 25,000 cells/well and incubated at 37° C., 5% CO2. A compound dose-response titration was diluted in growth media, added to appropriate wells of a cell culture plate, and then incubated at 37° C., 5% CO2 for 2 hours.

[2] = molecular target: His-tagged KRAS G12D protein (Homo sapiens, UniProt P01116, G12D); experiment: biochemical
Sequence of His-tagged KRAS G12D protein (P01116 1-188 isoform P01116-2 G12D): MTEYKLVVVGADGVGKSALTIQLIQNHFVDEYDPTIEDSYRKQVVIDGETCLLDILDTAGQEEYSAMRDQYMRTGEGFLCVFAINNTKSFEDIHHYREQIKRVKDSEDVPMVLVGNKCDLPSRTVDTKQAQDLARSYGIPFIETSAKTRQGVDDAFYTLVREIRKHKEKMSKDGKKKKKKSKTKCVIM

SMILES	pIC50 [1]	pIC50 [2]
CCc1c(F)ccc2cc(O)cc(-c3ncc4c(N5CCC[C@H](S(N)(=O)=O)C5)nc(OC[C@@]56CCCN5C[C@H](F)C6)nc4c3F)c12 [Example 7, (S)-1-(7-(8-Ethyl-7-fluoro-3-hydroxynaphthalen-1-yl)-8-fluoro-2-(((2R,7aS)-2-fluorotetrahydro-1H-pyrrolizin-7a(5H)-yl)methoxy)pyrido[4,3-d]pyrimidin-4-yl)piperidine-3-sulfonamide]	< 5.00	7.43
CCc1c(F)ccc2cc(O)cc(-c3ncc4c(N5CC(CC(N)=O)C5)nc(OC[C@@]56CCCN5C[C@H](F)C6)nc4c3F)c12 [Example 8, 2-(1-(7-(8-Ethyl-7-fluoro-3-hydroxynaphthalen-1-yl)-8-fluoro-2-(((2R,7aS)-2-fluorotetrahydro-1H-pyrrolizin-7a(5H)-yl)methoxy)pyrido[4,3-d]pyrimidin-4-yl)azetidin-3-yl)acetamide]	< 5.00	7.09
CCc1c(F)ccc2cc(O)cc(-c3ncc4c(N5CC6CC(O)C6C5)nc(OC[C@@]56CCCN5C[C@H](F)C6)nc4c3F)c12 (stereo partly drawn) [Example 9, 3-(7-(8-Ethyl-7-fluoro-3-hydroxynaphthalen-1-yl)-8-fluoro-2-(((2R,7aS)-2-fluorotetrahydro-1H-pyrrolizin-7a(5H)-yl)methoxy)pyrido[4,3-d]pyrimidin-4-yl)-3-azabicyclo[3.2.0]heptan-6-ol]	5.87	8.30
CCc1c(F)ccc2cc(O)cc(-c3ncc4c(N5C[C@@H](O)[C@@H](O)C5)nc(OC[C@@]56CCCN5C[C@H](F)C6)nc4c3F)c12 [Example 11, (3S,4R)-1-(7-(8-Ethyl-7-fluoro-3-hydroxynaphthalen-1-yl)-8-fluoro-2-(((2R,7aS)-2-fluorotetrahydro-1H-pyrrolizin-7a(5H)-yl)methoxy)pyrido[4,3-d]pyrimidin-4-yl)pyrrolidine-3,4-diol]	< 5.00	8.52
Oc1cc(-c2ncc3c(N4CCC[C@@H](O)C4)nc(OC[C@@]45CCCN4C[C@H](F)C5)nc3c2F)c2c(F)c(F)ccc2c1 [Example 12, (R)-1-(7-(7,8-Difluoro-3-hydroxynaphthalen-1-yl)-8-fluoro-2-(((2R,7aS)-2-fluorotetrahydro-1H-pyrrolizin-7a(5H)-yl)methoxy)pyrido[4,3-d]pyrimidin-4-yl)piperidin-3-ol]	6.42	8.70
CCc1cccc2cc(O)cc(-c3ncc4c(N5CCC[C@@H](O)C5)nc(OC[C@@]56CCCN5C[C@H](F)C6)nc4c3F)c12 [Example 13, (R)-1-(7-(8-Ethyl-3-hydroxynaphthalen-1-yl)-8-fluoro-2-(((2R,7aS)-2-fluorotetrahydro-1H-pyrrolizin-7a(5H)-yl)methoxy)pyrido[4,3-d]pyrimidin-4-yl)piperidin-3-ol]	6.97	8.70
CCc1c(F)ccc2cc(O)cc(-c3ncc4c(N5C[C@H]6CC[C@@H]5C(O)C6)nc(OC[C@@]56CCCN5C[C@H](F)C6)nc4c3F)c12 (stereo partly drawn) [Example 17, (1R,4S)-2-(7-(8-Ethyl-7-fluoro-3-hydroxynaphthalen-1-yl)-8-fluoro-2-(((2R,7aS)-2-fluorotetrahydro-1H-pyrrolizin-7a(5H)-yl)methoxy)pyrido[4,3-d]pyrimidin-4-yl)-2-azabicyclo[2.2.2]octan-6-ol]	5.50	7.42
Oc1cc(-c2ncc3c(N4CC5CC(O)C(C5)C4)nc(OC[C@@]45CCCN4C[C@H](F)C5)nc3c2F)c2c(F)c(F)ccc2c1 (stereo partly drawn) [Example 18, 3-(7-(7,8-Difluoro-3-hydroxynaphthalen-1-yl)-8-fluoro-2-(((2R,7aS)-2-fluorotetrahydro-1H-pyrrolizin-7a(5H)-yl)methoxy)pyrido[4,3-d]pyrimidin-4-yl)-3-azabicyclo[3.2.1]octan-6-ol]	6.98	8.52
CCc1c(F)ccc2cc(O)cc(-c3ncc4c(N5CCCC(CO)(CCl)C5)nc(OC[C@@]56CCCN5C[C@H](F)C6)nc4c3F)c12 (stereo partly drawn) [Example 22, 4-(4-(3-(Chloromethyl)-3-(hydroxymethyl)piperidin-1-yl)-8-fluoro-2-(((2R,7aS)-2-fluorotetrahydro-1H-pyrrolizin-7a(5H)-yl)methoxy)pyrido[4,3-d]pyrimidin-7-yl)-5-ethyl-6-fluoronaphthalen-2-ol]	6.53	8.40

Next, values leading:

pIC50 [1]	pIC50 [2]	SMILES
6.00	7.77	C[C@@]1(O)CCCN(c2nc(OC[C@@]34CCCN3C[C@H](F)C4)nc3c(F)c(-c4cccc5ccc(F)c(F)c45)ncc23)C1 [Example 49, (R)-1-(7-(7,8-Difluoronaphthalen-1-yl)-8-fluoro-2-(((2R,7aS)-2-fluorotetrahydro-1H-pyrrolizin-7a(5H)-yl)methoxy)pyrido[4,3-d]pyrimidin-4-yl)-3-methylpiperidin-3-ol]
8.10	9.00	C#Cc1c(F)ccc2cc(O)cc(-c3ncc4c(N5CCCC(C)(O)C5)nc(OCC56CCCN5CC(F)C6)nc4c3F)c12 [Example 52, (R)-1-(7-(8-Ethynyl-7-fluoro-3-hydroxynaphthalen-1-yl)-8-fluoro-2-(((2R,7aS)-2-fluorotetrahydro-1H-pyrrolizin-7a(5H)-yl)methoxy)pyrido[4,3-d|pyrimidin-4-yl)-3-methylpiperidin-3-ol]
7.48	9.00	C[C@@]1(O)CCCN(c2nc(OC[C@@]34CCCN3C[C@H](F)C4)nc3c(F)c(-c4cc(O)cc5ccc(F)c(Cl)c45)ncc23)C1 [Example 56, (R)-1-(7-(8-Chloro-7-fluoro-3-hydroxynaphthalen-1-yl)-8-fluoro-2-(((2R,7aS)-2-fluorotetrahydro-1H-pyrrolizin-7a(5H)-yl)methoxy)pyrido[4,3-d]pyrimidin-4-yl)-3-methylpiperidin-3-ol]
6.94	8.70	C[C@@]1(O)CCCN(c2nc(OC[C@@]34CCCN3C[C@H](F)C4)nc3c(F)c(-c4cc(O)cc5cccc(F)c45)ncc23)C1 [Example 57, (R)-1-(8-Fluoro-7-(8-fluoro-3-hydroxynaphthalen-1-yl)-2-(((2R,7aS)-2-fluorotetrahydro-1H-pyrrolizin-7a(5H)-yl)methoxy)pyrido[4,3-d]pyrimidin-4-yl)-3-methylpiperidin-3-ol]
8.05	9.00	CCc1cccc2cc(O)cc(-c3ncc4c(N5CCC[C@@](C)(O)C5)nc(OC[C@@]56CCCN5C[C@H](F)C6)nc4c3F)c12 [Example 58, (R)-1-(7-(8-Ethyl-3-hydroxynaphthalen-1-yl)-8-fluoro-2-(((2R,7aS)-2-fluorotetrahydro-1H-pyrrolizin-7a(5H)-yl)methoxy)pyrido[4,3-d]pyrimidin-4-yl)-3-methylpiperidin-3-ol]
6.48	8.70	C[C@@]1(O)CCCN(c2nc(OC[C@@]34CCCN3C[C@H](F)C4)nc3c(F)c(-c4cc(O)cc5ccccc45)ncc23)C1 [Example 60, (R)-1-(8-Fluoro-2-(((2R,7aS)-2-fluorotetrahydro-1H-pyrrolizin-7a(5H)-yl)methoxy)-7-(3-hydroxynaphthalen-1-yl)pyrido[4,3-d]pyrimidin-4-yl)-3-methylpiperidin-3-ol]
6.82	8.52	CCc1c(F)ccc2cc(O)cc(-c3ncc4c(N5CCCC(O)(CC)C5)nc(OC[C@@]56CCCN5C[C@H](F)C6)nc4c3F)c12 (stereo partly drawn) [Example 65, 3-Ethyl-1-(7-(8-ethyl-7-fluoro-3-hydroxynaphthalen-1-yl)-8-fluoro-2-(((2R,7aS)-2-fluorotetrahydro-1H-pyrrolizin-7a(5H)-yl)methoxy)pyrido[4,3-d]pyrimidin-4-yl)piperidin-3-ol]
6.12	7.74	CCc1c(F)ccc2cc(O)cc(-c3ncc4c(N5CCC[C@](C)(CO)C5)nc(OC[C@@]56CCCN5C[C@H](F)C6)nc4c3F)c12 [Example 66, 5-Ethyl-6-fluoro-4-(8-fluoro-2-(((2R,7aS)-2-fluorotetrahydro-1H-pyrrolizin-7a(5H)-yl)methoxy)-4-((S)-3-(hydroxymethyl)-3-methylpiperidin-1-yl)pyrido[4,3-d]pyrimidin-7-yl)naphthalen-2-ol]
6.09	7.72	CCc1c(F)ccc2cc(O)cc(-c3ncc4c(N5CCC[C@@](C)(CO)C5)nc(OC[C@@]56CCCN5C[C@H](F)C6)nc4c3F)c12 [Example 67, 5-Ethyl-6-fluoro-4-(8-fluoro-2-(((2R,7aS)-2-fluorotetrahydro-1H-pyrrolizin-7a(5H)-yl)methoxy)-4-((R)-3-(hydroxymethyl)-3-methylpiperidin-1-yl)pyrido[4,3-d]pyrimidin-7-yl)naphthalen-2-ol]
5.77	8.10	CCc1c(F)ccc2cc(O)cc(-c3ncc4c(N5CCCC(C)(C(N)=O)C5)nc(OC[C@@]56CCCN5C[C@H](F)C6)nc4c3F)c12 (stereo partly drawn) [Example 68, 1-(7-(8-Ethyl-7-fluoro-3-hydroxynaphthalen-1-yl)-8-fluoro-2-(((2R,7aS)-2-fluorotetrahydro-1H-pyrrolizin-7a(5H)-yl)methoxy)pyrido[4,3-d]pyrimidin-4-yl)-3-methylpiperidine-3-carboxamide]
5.49	7.47	CCc1c(F)ccc2cc(O)cc(-c3ncc4c(N5CC6CC(=O)C5C6)nc(OC[C@@]56CCCN5C[C@H](F)C6)nc4c3F)c12 (stereo partly drawn) [Example 72, 2-(7-(8-Ethyl-7-fluoro-3-hydroxynaphthalen-1-yl)-8-fluoro-2-(((2R,7aS)-2-fluorotetrahydro-1H-pyrrolizin-7a(5H)-yl)methoxy)pyrido[4,3-d]pyrimidin-4-yl)-2-azabicyclo[2.2.1]heptan-6-one]
5.66	8.30	CCc1c(F)ccc2cc(O)cc(-c3ncc4c(N5CCCC(S(=O)(=O)NC)C5)nc(OC[C@@]56CCCN5C[C@H](F)C6)nc4c3F)c12 (stereo partly drawn) [Example 79, 1-(7-(8-Ethyl-7-fluoro-3-hydroxynaphthalen-1-yl)-8-fluoro-2-(((2R,7aS)-2-fluorotetrahydro-1H-pyrrolizin-7a(5H)-yl)methoxy)pyrido[4,3-d]pyrimidin-4-yl)-N-methylpiperidine-3-sulfonamide]
